Source: PMC11726150, “Pre‐ADMET studies of 5‐(3′,4′‐dihydroxyphenyl)‐γ‐valerolactone, the bioactive intestinal metabolite of proanthocyanidins” (Archiv Der Pharmazie, 2024)

Assays:
[1] = design: method as in earlier work; conditions: healthy subjects, ref 43 (Di Pede et al.), cited from earlier work; for Cmax: human plasma, after PACs intake, read-out: C MAX (mean ± SD) in plasma; for average urinary excretion (% of ingested dose): human urine
[2] = system: Wt‐MDCK monolayers; assay: In vitro transport study across 5‐day Wt‐MDCK monolayers; format: in vitro ADME, canine; conditions: Wt‐MDCK model, VL 50 μM dosed (VLS formed as metabolite), controls 10 μM, N = 4; for P app A–B (mean ± SD): absorptive direction; for P app B–A (mean ± SD): secretory direction
Method: (§1) Caco2 cells between passage numbers 42–50 and MDCK cells between passage numbers 21–26 were used for transport studies; the assay was conducted as reported by Volpe^[ [33] ^] with slight modifications. Transport experiments were performed in 12‐well Transwell plates. Caco2 cells were seeded at a density of 60,000 cells/cm^2 and grown for 21 days, with change of media every 3 days, while MDCK cells were seeded at a density of 70,000 cells/cm^2 and grown for 5 days, changing the medium daily. The physiological and morphological formation of a confluent monolayer was evaluated by measuring the TEER value: Caco2 monolayers became confluent 1 week after seeding with TEER values greater than 450 Ω/cm^2, while MDCK monolayers became confluent 24 h after seeding with TEER values greater than 90 Ω/cm^2. Phenol red and serum‐free DMEM/F12 medium was used as transport buffer. For bidirectional transport, VL (50 μM) and control compound (propranolol and paclitaxel, 10 μM) were added to the apical side to determine apical to basolateral transport (A–B; absorptive direction) and to the basal side to determine basolateral to apical transport (B–A; secretory direction). The volume of the apical and basolateral chambers was 0.5 and 1.5 mL, respectively. Aliquots of 120 μL were taken from the basolateral (for A–B transport) or the apical (for B–A transport) chamber at 30, 60, 90, and 120 min. An equal volume was replaced with a transport buffer at every time point. At the beginning and at the end of the experiment, an aliquot was also taken from the apical or basolateral chamber for analysis of the drug. To determine the integrity of monolayers, TEER values were measured before and after the experiment. In addition, at the end of the experiment cells were collected and lysed to evaluate the compound intake. Briefly, cells were washed twice with cold PBS and 200 µL of cold MeOH was added to detach and lysate the cells; subsequently, cells were collected into lo‐bind Eppendorf and sonicated in ice for 10 min, then centrifuged for 15 min at 4°C at 14,000 rpm (Eppendorf Centrifuge 5430 R). The supernatant was collected and used for further analysis.
(§2) The apparent permeability P app (cm/s) of compounds was calculated from the following equation (Equation 1), while P app (cm/s) of the metabolites was calculated from the equation (Equation 2): (1) Papp=dQ/dt×1/C×1/A.
(§3) Equation (1) for calculating P app (cm/s) of tested reference compounds. (2) Papp=Metabolic cleareance/A.
(§4) Equation (2) for calculating P app (cm/s) of compound metabolites.
(§5) with Metabolic cleareance=Rate of metabolism/C and where dQ/dt is the rate of transport, C is the initial concentration in the donor compartment, and A is the surface area of the filter. To quantify the rate of transport, cumulative amounts of test compounds were plotted against time (min).
(§6) Efflux ratio was calculated using the following equation (Equation 3)^[ [48] ^]: (3) Efflux ratio=Papp(B−A)/Papp(A−B).

[3] = as above; format: in vitro ADME, canine; conditions: dog, Wt‐MDCK model, N = 4; for Papp A→B at 120 min: absorptive direction, read-out: P app A–B (mean ± SD); for Papp A→B at 120 min / Papp B→A at 120 min: VL 50 μM dosed (VLS formed as metabolite), controls 10 μM; for Papp B→A at 120 min: secretory direction, read-out: P app B–A (mean ± SD); for efflux ratio at 120 min: Papp(B−A)/Papp(A−B), read-out: Efflux ratio (mean ± SD)
Method: as §1, §2, §3, §4, §5, §6

[4] = system: Caco2 monolayers; assay: In vitro transport study across 21‐day Caco2 monolayers; format: in vitro ADME, human; conditions: Caco2 model, VL 50 μM dosed (VLS formed as metabolite), controls 10 μM, N = 4; for P app A–B (mean ± SD): absorptive direction; for P app B–A (mean ± SD): secretory direction
Method: as §1, §2, §3, §4, §5, §6

[5] = as above; format: in vitro ADME, human; conditions: human, Caco-2, Caco2 model, N = 4; for Papp A→B at 120 min: absorptive direction, read-out: P app A–B (mean ± SD); for Papp A→B at 120 min / Papp B→A at 120 min: VL 50 μM dosed (VLS formed as metabolite), controls 10 μM; for Papp B→A at 120 min: secretory direction, read-out: P app B–A (mean ± SD); for efflux ratio at 120 min: Papp(B−A)/Papp(A−B), read-out: Efflux ratio (mean ± SD)
Method: as §1, §2, §3, §4, §5, §6

[6] = molecular target: T1, PXR (Homo sapiens, UniProt O75469); format: cell-based; design: expressed in transfected cells; host or cells: HepG2 and LS174T cells, transient electroporation; conditions: HepG2 cells, 10 µM
T1 sequence (O75469 1-434): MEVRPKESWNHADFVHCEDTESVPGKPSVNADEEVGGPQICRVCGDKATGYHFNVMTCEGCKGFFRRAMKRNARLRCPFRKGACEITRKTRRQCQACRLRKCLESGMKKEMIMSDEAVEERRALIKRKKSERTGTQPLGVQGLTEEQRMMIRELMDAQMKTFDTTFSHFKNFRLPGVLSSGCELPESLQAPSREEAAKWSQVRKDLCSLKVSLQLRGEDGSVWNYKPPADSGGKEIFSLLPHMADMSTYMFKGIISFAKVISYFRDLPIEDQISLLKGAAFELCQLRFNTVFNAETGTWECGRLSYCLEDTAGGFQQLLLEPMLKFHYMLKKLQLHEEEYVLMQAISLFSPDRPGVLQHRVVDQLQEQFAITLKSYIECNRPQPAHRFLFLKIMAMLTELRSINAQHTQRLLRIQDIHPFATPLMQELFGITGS
Method: The PXR activation potential of VL was determined in transiently transfected HepG2 and LS174T cells as described earlier.^[ [50] ^] In brief, 24‐h‐old cells having 70%−80% confluency were trypsinized and transfected with pSG5‐hPXR (25 μg) and PCR‐5 (25 μg) plasmid DNA by electroporation at 180 V (1 pulse for 70 ms). Cells were incubated at room temperature for 8 min and floating dead cells were carefully removed. Cells were seeded in 96‐well plates at a density of 50,000 cells/well. […] Following 24 h of incubation, the culture medium was aspirated and 40 μL of luciferase reagent (Promega Corporation) was added to each well. Luminescence was measured using a Spectramax M5 plate reader (Molecular Devices) and the fold increase in luciferase activity among sample‐treated cells was calculated in comparison with the vehicle‐treated (DMSO) cells.

[7] = system: P‐gp; assay: Rhodamine‐123 uptake assay, induction (48 h), differentiated Caco2 cells; format: cell-based, human; conditions: 10 µM, 48 h treatment; 0.1% DMSO vehicle control = 100%
Method: P‐gp modulation was determined in differentiated Caco2 cells by Rh‐123 uptake assay.^[ [49] ^] In brief, cells in the logarithmic growth phase with 70%–80% confluency were harvested and seeded at a density of 2 × 10^4/well of a 96‐well plate. Cells were allowed to grow for 21 days in a CO2 incubator changing the medium every other day.
After treatment, cells were washed with Hank's buffer and 200 μL of phenol, and serum‐free DMEM/F12 medium containing […] of Rh‐123 was added and cells were incubated for 90 min. The final steps were as described previously.

[8] = system: Wt‐MDCK cells; assay: MTT cell viability assay; format: cell-based, canine; conditions: 20 μM, data not shown
Method: (§7) The effect of test samples on cell viability was measured using an MTT assay. Briefly, exponentially growing 2 × 10^4 cells/200 μL were seeded in 96‐well plates and allowed to grow until reaching their differentiation state. Cells were treated with different concentrations of VL (50–1.6 µM) and positive control camptothecin (30–1 μM) serially diluted in serum‐free medium. After incubation, 10 μL of MTT dye (5 mg/mL stock in PBS) was added to each well, and plates were additionally incubated for 4 h. Further, media were aspirated, and cells were washed with 100 μL of phosphate buffer saline. The formazan blue crystals formed by viable cells were dissolved in 150 μL of DMSO, and the absorbance was measured at 580 nm on a Bio‐Tek, Synergy HT Multi‐Mode, plate reader. The % decrease in viability of sample‐treated cells was calculated compared with vehicle‐treated cells.^[ [46] ^]

[9] = system: LS174T cells; assay: MTT cell viability assay; format: cell-based, human; conditions: 20 μM, data not shown
Method: as §7

[10] = system: HepG2 cells; assay: MTT cell viability assay; format: cell-based, human; conditions: HepG2, 20 μM, data not shown
Method: as §7

[11] = system: Caco2 cells; assay: MTT cell viability assay; format: cell-based, human; conditions: Caco2, 20 μM, data not shown
Method: as §7

SMILES: O=C1CC[C@H](Cc2ccc(OS(=O)(=O)O)c(O)c2)O1 [3ʹ‐OH‐PVL‐4ʹ‐sulfate]
- Cmax [1]: 368 ± 156 nM
- average urinary excretion (% of ingested dose) [1]: 11.3% ± 14.8%

SMILES: O=C1CC[C@H](Cc2ccc(O)c(OC3OC(C(=O)O)C(O)C(O)C3O)c2)O1 (stereo partly shown) [4ʹ‐OH‐PVL‐3ʹ‐glucuronide]
- Cmax [1]: 229 ± 345 nM
- average urinary excretion (% of ingested dose) [1]: 3.1% ± 3.3%

SMILES: CC(=O)O[C@H]1C(=O)[C@@]2(C)[C@H]([C@H](OC(=O)c3ccccc3)[C@]3(O)C[C@H](OC(=O)[C@H](O)[C@@H](NC(=O)c4ccccc4)c4ccccc4)C(C)=C1C3(C)C)[C@]1(OC(C)=O)CO[C@@H]1C[C@@H]2O [Paclitaxel]
- P app A–B (mean ± SD) [2]: 5.183 ×10⁻⁶ cm/s
- P app B–A (mean ± SD) [2]: 2.952 ×10⁻⁶ cm/s
- Papp A→B at 120 min [3]: 5.18 ×10⁻⁶ cm/s
- Papp B→A at 120 min [3]: 2.95 ×10⁻⁶ cm/s
- efflux ratio at 120 min [3]: 0.55 ± 0.089
- P app A–B (mean ± SD) [4]: 1.202 ×10⁻⁶ cm/s
- P app B–A (mean ± SD) [4]: 3.421 ×10⁻⁶ cm/s
- Papp A→B at 120 min [5]: 1.2 ×10⁻⁶ cm/s
- Papp B→A at 120 min [5]: 3.42 ×10⁻⁶ cm/s
- efflux ratio at 120 min [5]: 2.54 ± 2.06

SMILES: CC(C)NCC(O)COc1cccc2ccccc12 (stereo not shown) [Propranolol]
- P app A–B (mean ± SD) [2]: 10.05 ×10⁻⁶ cm/s
- P app B–A (mean ± SD) [2]: 5.364 ×10⁻⁶ cm/s
- Papp A→B at 120 min [3]: 10.1 ×10⁻⁶ cm/s
- Papp B→A at 120 min [3]: 5.36 ×10⁻⁶ cm/s
- efflux ratio at 120 min [3]: 0.535 ± 0.058
- P app A–B (mean ± SD) [4]: 15.39 ×10⁻⁶ cm/s
- P app B–A (mean ± SD) [4]: 12.96 ×10⁻⁶ cm/s
- Papp A→B at 120 min [5]: 15.4 ×10⁻⁶ cm/s
- Papp B→A at 120 min [5]: 13 ×10⁻⁶ cm/s
- efflux ratio at 120 min [5]: 0.859 ± 0.085

SMILES: CO[C@H]1/C=C/O[C@@]2(C)Oc3c(C)c(O)c4c(O)c(c(/C=N/N5CCN(C)CC5)c(O)c4c3C2=O)NC(=O)/C(C)=C\C=C\[C@H](C)[C@H](O)[C@@H](C)[C@@H](O)[C@@H](C)[C@H](OC(C)=O)[C@@H]1C [RIF, rifampicin, reference compound]
- PXR activation [6]: 3.4 folds
- intracellular accumulation of Rh‐123 [7]: 75%

SMILES: CC[C@@]1(O)C(=O)OCc2c1cc1n(c2=O)Cc2cc3ccccc3nc2-1 [camptothecin]
- effect on cell viability [8]: dramatically reduced the viability
- effect on cell viability [9]: dramatically reduced the viability
- effect on cell viability [10]: dramatically reduced the viability
- effect on cell viability [11]: dramatically reduced the viability

SMILES: COc1cccc2c1C(=O)c1c(O)c3c(c(O)c1C2=O)C[C@@](O)(C(=O)CO)C[C@@H]3O[C@H]1C[C@H](N)[C@H](O)[C@H](C)O1 [doxorubicin]
- effect on cell viability [8]: dramatically reduced the viability
- effect on cell viability [9]: dramatically reduced the viability
- effect on cell viability [10]: dramatically reduced the viability
- effect on cell viability [11]: dramatically reduced the viability
